Measured values reported in ChEMBL document CHEMBL1687767, “New antiseptic peptides to protect against endotoxin-mediated shock” (Antimicrob Agents Chemother, 2010).
Values after ≈ are worked out from the molar mass of the structure shown. Active and inactive are the calls of the source. No cut-off for these calls is given here. Residues, ends and D or L forms follow the SMILES beside them.

Columns and labels:
[1] = tested on: Bordetella bronchiseptica; assay: Antimicrobial activity against Bordetella bronchiseptica CUN11844-99 by broth microdilution method; format: functional
Pseudomonas aeruginosa [2] = assay: Antimicrobial activity against Pseudomonas aeruginosa CUN 4158-02 by broth microdilution method; format: functional
Pseudomonas aeruginosa [3] = assay: Antimicrobial activity against Pseudomonas aeruginosa ATCC 27853 by broth microdilution method; format: functional
Escherichia coli = assay: Antimicrobial activity against Escherichia coli ATCC 25922 by broth microdilution method; format: functional
Staphylococcus aureus [4] = assay: Antimicrobial activity against Staphylococcus aureus ATCC 25923 by broth microdilution method; format: functional
Staphylococcus aureus [5] = assay: Antimicrobial activity against methicillin-resistant Staphylococcus aureus ATCC 43300 by broth microdilution method; format: functional
Staphylococcus aureus [6] = assay: Antimicrobial activity against methicillin-resistant Staphylococcus aureus CUN 3792-99 by broth microdilution method; format: functional
[7] = tested on: Stenotrophomonas maltophilia; assay: Antimicrobial activity against […] Stenotrophomonas maltophilia CUN 3998-00 by broth microdilution method; format: functional
Acinetobacter baumannii = assay: Antimicrobial activity against […] Acinetobacter baumannii ATCC 19606 by broth microdilution method; format: functional
Homo sapiens [8] = organism: Homo sapiens; assay: Antiinflammatory activity in human MNC assessed as inhibition of LPS-induced TNFalpha production at compound: LPS ratio of 100:1 weight percent by ELISA; format: functional
Mus musculus [9] = assay: Antisepsis activity in Pseudomonas aeruginosa LPS-induced C57BL/6 mouse lethal endotoxin shock model assessed as mouse survival at 12.5 ug, ip administered immediately after LPS challenge; format: functional, organism-based
[10] = Toxicity in human RBC assessed as hemolysis upto 25 ug/ml; format: cell-based; details: erythrocyte
Mus musculus [11] = assay: Antisepsis activity in Salmonella enterica serovar Minnesota R60 LPS-induced C57BL/6 mouse lethal endotoxin shock model assessed as mouse survival at 12.5 ug, ip administered immediately after LPS challenge; format: functional, organism-based
Jurkat [12] = assay: Cytotoxicity against human Jurkat cells assessed as effect on respiration rate at 10 ug/ml by Chip-based Bionas system; format: cell-based
Jurkat [13] = assay: Cytotoxicity against human Jurkat cells assessed as effect on respiration rate at 100 ug/ml by Chip-based Bionas system; format: cell-based
HepG2 [14] = assay: Cytotoxicity against human HepG2 cells assessed as effect on respiration rate at 10 ug/ml by Chip-based Bionas system; format: cell-based
HepG2 [15] = assay: Cytotoxicity against human HepG2 cells assessed as effect on respiration rate at 100 ug/ml by Chip-based Bionas system; format: cell-based
[16] = Cytotoxicity against human LS 174T cells assessed as effect on respiration rate at 10 ug/ml by Chip-based Bionas system; format: cell-based; details: ls174t
[17] = Cytotoxicity against human LS 174T cells assessed as effect on respiration rate at 100 ug/ml by Chip-based Bionas system; format: cell-based; details: ls174t
PBMC [18] = assay: Cytotoxicity against human PBMC cells assessed as effect on respiration rate at 10 ug/ml by Chip-based Bionas system; format: cell-based
PBMC [19] = assay: Cytotoxicity against human PBMC cells assessed as effect on respiration rate at 100 ug/ml by Chip-based Bionas system; format: cell-based
HeLa [20] = assay: Cytotoxicity against human HeLa cells at 10 ug/ml by MTT assay; format: cell-based
HeLa [21] = assay: Cytotoxicity against human HeLa cells at 100 ug/ml by MTT assay; format: cell-based
HaCaT [22] = assay: Cytotoxicity against human HaCaT cells at 10 ug/ml by MTT assay; format: cell-based
HaCaT [23] = assay: Cytotoxicity against human HaCaT cells at 100 ug/ml by MTT assay; format: cell-based
Mus musculus [24] = assay: Antisepsis activity in Salmonella enterica serovar Minnesota R60 LPS-induced C57BL/6 mouse lethal endotoxin shock model assessed as mouse survival at 2.5 ug, ip administered immediately after LPS challenge measured 48 hrs post LPS challenge; format: functional, organism-based
Lipopolysaccharide (LPS) = assay: Binding affinity to Salmonella enterica serovar Minnesota R60 LPS at [compound]/[LPS] ratio of 0.3 by isothermal titration calorimetry; details: Salmonella enterica subsp. enterica serovar Minnesota
Homo sapiens [25] = organism: Homo sapiens; assay: Antiinflammatory activity in human MNC assessed as inhibition of LPS-induced TNFalpha production at compound: LPS ratio of <10:1 weight percent by ELISA; format: functional
Homo sapiens [26] = organism: Homo sapiens; assay: Antiinflammatory activity in human MNC assessed as inhibition of LPS-induced TNFalpha production at compound: LPS ratio of 10:1 weight percent by ELISA; format: functional

| Compound | MIC [1] | MIC (Pseudomonas aeruginosa [2]) | MIC (Pseudomonas aeruginosa [3]) | MIC (Escherichia coli) | MIC (Staphylococcus aureus [4]) | MIC (Staphylococcus aureus [5]) | MIC (Staphylococcus aureus [6]) | MIC [7] | MIC (Acinetobacter baumannii) | inhibition (Homo sapiens [8]) | Activity (Mus musculus [9]) | Activity [10] | Activity (Mus musculus [11]) | other results |
| --- | --- | --- | --- | --- | --- | --- | --- | --- | --- | --- | --- | --- | --- | --- |
| N=C(N)NCCC[C@H](NC(=O)CNC(=O)[C@H](CCCCN)NC(=O)[C@H](Cc1ccccc1)NC(=O)[C@H](CCCCN)NC(=O)[C@H](Cc1c[nH]c2ccccc12)NC(=O)[C@H](CCCNC(=N)N)NC(=O)[C@H](Cc1ccccc1)NC(=O)[C@H](CCCCN)NC(=O)[C@H](CCCCN)NC(=O)[C@H](Cc1ccc(O)cc1)NC(=O)[C@H](CCCNC(=N)N)NC(=O)[C@H](CCCNC(=N)N)NC(=O)CN)C(=O)N[C@@H](Cc1c[nH]c2ccccc12)C(=O)N[C@@H](Cc1ccccc1)C(=O)N[C@@H](Cc1c[nH]c2ccccc12)C(=O)N[C@@H](Cc1ccccc1)C(=O)NCC(=O)O (H-GRRYKKFRWKFKGRWFWFG-OH) | 128 µg/mL (≈ 48.5 µM) | 32 µg/mL (≈ 12.1 µM) | 16 µg/mL (≈ 6.07 µM) | 16 µg/mL (≈ 6.07 µM) | 8 µg/mL (≈ 3.03 µM) | 8 µg/mL (≈ 3.03 µM) | 8 µg/mL (≈ 3.03 µM) | 32 µg/mL (≈ 12.1 µM) | 16 µg/mL (≈ 6.07 µM) | Active | inactive | Non-toxic | – | – |
| N=C(N)NCCC[C@H](NC(=O)[C@H](Cc1ccc(O)cc1)NC(=O)[C@H](CCCCN)NC(=O)[C@H](CCCCN)NC(=O)[C@H](CS)NC(=O)CN)C(=O)N[C@@H](CCCNC(=N)N)C(=O)N[C@@H](Cc1ccccc1)C(=O)N[C@@H](CCCNC(=N)N)C(=O)N[C@@H](Cc1c[nH]c2ccccc12)C(=O)N[C@@H](CCCCN)C(=O)N[C@@H](Cc1ccccc1)C(=O)N[C@@H](CCCCN)C(=O)NCC(=O)N[C@@H](CCCCN)C(=O)N[C@@H](Cc1ccccc1)C(=O)N[C@@H](Cc1c[nH]c2ccccc12)C(=O)N[C@@H](Cc1ccccc1)C(=O)N[C@@H](Cc1c[nH]c2ccccc12)C(=O)NCC(=O)O | – | – | – | – | – | – | – | – | – | Active | – | Non-toxic | Active | Activity (Jurkat [12]): Non-toxic; Activity (Jurkat [13]): Toxic; Activity (HepG2 [14]): Non-toxic; Activity (HepG2 [15]): Toxic; Activity [16]: Non-toxic; Activity [17]: Toxic; Activity (PBMC [18]): Non-toxic; Activity (PBMC [19]): Toxic; Activity (HeLa [20]): Non-toxic; Activity (HeLa [21]): Toxic; Activity (HaCaT [22]): Non-toxic; Activity (HaCaT [23]): Toxic; Activity (Mus musculus [24]): Active; Activity (Lipopolysaccharide (LPS)): Active |
| POLYMYXIN B | – | – | – | – | – | – | – | – | – | – | Active | – | Active | inhibition (Homo sapiens [25]): Active; inhibition (Homo sapiens [26]): Active |
| N=C(N)NCCC[C@H](NC(=O)CNC(=O)[C@H](CCCCN)NC(=O)[C@H](CCCNC(=N)N)NC(=O)[C@H](Cc1ccccc1)NC(=O)[C@H](CCCCN)NC(=O)[C@H](Cc1c[nH]c2ccccc12)NC(=O)[C@H](CCCNC(=N)N)NC(=O)[C@H](Cc1ccccc1)NC(=O)[C@H](CCCNC(=N)N)NC(=O)[C@H](CCCNC(=N)N)NC(=O)[C@H](Cc1ccc(O)cc1)NC(=O)[C@H](CCCCN)NC(=O)[C@H](CCCCN)NC(=O)CN)C(=O)N[C@@H](Cc1ccccc1)C(=O)N[C@@H](Cc1c[nH]c2ccccc12)C(=O)N[C@@H](Cc1ccccc1)C(=O)N[C@@H](Cc1c[nH]c2ccccc12)C(=O)NCC(=O)O (H-GKKYRRFRWKFRKGRFWFWG-OH) | 4 µg/mL (≈ 1.43 µM) | 32 µg/mL (≈ 11.5 µM) | 16 µg/mL (≈ 5.73 µM) | 16 µg/mL (≈ 5.73 µM) | 16 µg/mL (≈ 5.73 µM) | 16 µg/mL (≈ 5.73 µM) | 16 µg/mL (≈ 5.73 µM) | 64 µg/mL (≈ 22.9 µM) | 16 µg/mL (≈ 5.73 µM) | Active | inactive | – | – | – |
